Among the data in patent EP0888340B1, “4-(BENZO-1,3-DIOXOLYL)-PYRROLIDINE-3-CARBOXYLIC ACID DERIVATIVES AS ENDOTHELIN ANTAGONISTS” (Abbott Laboratories, priority 1996, dated 1997) are inhibition values, retold here.

SMILES strings stand for the structures.

For this test, the target named is T1, ETB Receptor (Sus scrofa, UniProt P35463).
T1 construct: Porcine cerebellum was homogenized in 25 volumes (w/v) of 10 mM Hepes (pH 7.4); from tissue; host or cells: porcine cerebellum membranes
T1 sequence (P35463 27-443): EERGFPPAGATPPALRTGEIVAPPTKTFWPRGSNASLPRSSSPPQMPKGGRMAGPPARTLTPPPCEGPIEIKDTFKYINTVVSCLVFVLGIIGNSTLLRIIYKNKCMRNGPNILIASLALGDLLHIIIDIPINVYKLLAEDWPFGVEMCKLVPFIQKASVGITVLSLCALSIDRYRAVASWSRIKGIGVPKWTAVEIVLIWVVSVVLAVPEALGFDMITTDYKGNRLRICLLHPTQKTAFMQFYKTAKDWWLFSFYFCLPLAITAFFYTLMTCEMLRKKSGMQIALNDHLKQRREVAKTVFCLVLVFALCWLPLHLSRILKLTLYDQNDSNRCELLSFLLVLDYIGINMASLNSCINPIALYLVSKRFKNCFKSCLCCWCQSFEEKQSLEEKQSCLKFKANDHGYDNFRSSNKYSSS
As to the kind of experiment: ETB receptor binding assay: [125I]ET-3 binding to membranes. The note with it: test compound 1 µM; displacement of 0.1 nM [125I]ET-3; Porcine cerebellum membranes; 4 hours at 25 °C. Here is the method: Preparation of membranes from Porcine cerebellum:
Porcine cerebellum was homogenized in 25 volumes (w/v) of 10 mM Hepes (pH 7.4) containing 0.25 M sucrose and protease inhibitors (3 mM EDTA, 0.1 mM PMSF, and 5 µg/ml Pepstatin A) by 3-10 sec polytron at 13,500 rpm with 10 sec intervals. The mixture was centrifuged at 1000xg for 10 min. The supernatant was collected and centrifuged at 30,000xg for 30 min. The precipitate was resuspended in Buffer A (20 mM Tris, 100 mM NaCl, 10 mM MgCl2, pH 7.4) containing the aforementioned protease inhibitors and centrifuged again. The final pellet was resuspended in Buffer A containing protease inhibitors and stored at -80°C until used. Protein content was determined by the Bio-Rad dye-binding protein assay.
[^125I]ET-3 binding to membranes:
Binding assays were performed in 96-well microtiter plates pretreated with 0.1% BSA. Membranes prepared from cells were diluted ∼100 fold in Buffer B (20 mM Tris, 100 mM NaCl, 10 mM MgCl2, pH 7.4, with 0.2% BSA, 0.1 mM PMSF, 5 µg/mL Pepstatin A, 0.025% bacitracin, and 3 mM EDTA) to a final concentration of 0.2 mg/mL of protein. In competition studies, membranes (0.02 mg) were incubated with 0.1 nM of [^125I]ET-3 in Buffer B (final volume: 0.2 mL) in the presence of increasing concentrations of unlabeled ET-3 or a test compound for 4 hours at 25 °C. After incubation, unbound ligands were separated from bound ligands by a vacuum filtration method using glass-fiber filter strips in PHD cell harvesters (Cambridge Technology, Inc., MA), followed by washing the filter strips with saline (1 mL) for three times. Nonspecific binding was determined in the presence of 1 µM ET-1. The per cent inhibition at a concentration of 1 µM is shown. […]

For the molecule `CCOc1ccc([C@H]2[C@H](C(=O)O)[C@@H](c3ccc4c(c3)OCO4)CN2CC(=O)Nc2c(CC)cccc2CC)cc1` (racemic) [Example 10, trans,trans-2-(4-ethoxyphenyl)-4-(1,3-benzodioxol-5-yl)-1-((2,6-diethyl)phenylaminocarbonylmethyl)-pyrrolidine-3-carboxylic acid], testing at 1 µM gave an inhibition of 95.2%.

Regarding `CCOc1ccc([C@H]2[C@H](C(=O)O)[C@@H](c3ccc4c(c3)OCO4)CN2CC(=O)Nc2c(CC)cccc2CC)cc1` [Example 23, (2R,3R,4S)-2-(4-ethoxyphenyl)-4-(1,3-benzodioxol-5-yl)-1-((2,6-diethyl)phenylaminocarbonylmethyl)-pyrrolidine-3-carboxylic acid], the inhibition (usually how much of the control response was suppressed) at 1 µM is 99.1%.

For `CCCOc1ccc([C@H]2[C@H](C(=O)O)[C@@H](c3cc(OC)c4c(c3)OCO4)CN2CC(=O)Nc2c(CC)cccc2CC)cc1OC` [Example 13, trans,trans-2-(3-methoxy-4-propoxyphenyl)-4-(7-methoxy-1,3-benzodioxol-5-yl)-1-((2,6-diethyl)phenylaminocarbonylmethyl)-pyrrolidine-3-carboxylic acid], the inhibition at 1 µM turned out to be 91.3%.

On to `CCc1cccc(CC)c1NC(=O)CN1C[C@H](c2ccc3c(c2)OCO3)[C@@H](C(=O)O)[C@@H]1c1ccc(OC)cc1` (racemic) [Example 4, trans,trans-2-(4-Methoxyphenyl)-4-(1,3-benzodioxol-5-yl)-1-((2,6-diethyl)phenylaminocarbonylmethyl)-pyrrolidine-3-carboxylic acid], for which the inhibition at 1 µM was 94%.

With `CCc1cc(Br)cc(CC)c1NC(=O)CN1C[C@H](c2ccc3c(c2)OCO3)[C@@H](C(=O)O)[C@@H]1c1ccc(OC)cc1` [Example 17, trans,trans-2-(4-methoxyphenyl)-4-(1,3-benzodioxol-5-yl)-1-((4-bromo-2,6-diethyl)phenylaminocarbonylmethyl)-pyrrolidine-3-carboxylic acid], the inhibition at 1 µM came to 97.1%.

The molecule `COc1ccc([C@H]2[C@H](C(=O)O)[C@@H](c3ccc4c(c3)OCO4)CN2CC(=O)Nc2c(C)cc(C)cc2C)cc1` (racemic) [Example 1, trans,trans-2-(4-Methoxyphenyl)-4-(1,3-benzodioxol-5-yl)-1-((2,4,6-trimethyl)phenylaminocarbonylmethyl)-pyrrolidine-3-carboxylic acid] yielded an inhibition at 1 µM of 96.4%.

The molecule `COc1ccc([C@H]2[C@H](C(=O)O)[C@@H](c3ccc4c(c3)OCO4)CN2CC(=O)Nc2c(C)cccc2C(C)C)cc1` [Example 26, trans,trans-2-(4-methoxyphenyl)-4-(1,3-benzodioxol-5-yl)-1-((2-isopropyl-6-methyl)phenylaminocarbonylmethyl)-pyrrolidine-3-carboxylic acid] returned an inhibition at 1 µM of 98%.
